Experimental data as given in PMC6538953, “Metal Ions Activate the Human Taste Receptor TAS2R7” (Chemical Senses, 2019).
Changes are numbered by the printed parent chain.

Assays:
[1] = test system: mock-transfected HEK293 cells (Gα16-gust44 only); test: Calcium mobilization assay, mock-transfected cells (Gα16-gust44 only); format: cell-based, human; settings: any concentration tested (cromolyn 10 mM)
Protocol: (§1) Human embryonic kidney 293 (PEAKrapid, ATCC # CRL-2828) cells were cultured in Opti-MEM medium with 4% fetal bovine serum. One day before transfection, cells were seeded on a 96-well plate at a density of 25 000 per well. Cells were then transiently transfected with a TAS2R construct (0.1 µg/well) along with a G protein Gα16-gust44 (0.1 µg/well) construct by Lipofectamine 2000 (0.5 µl/well). For controls, only Gα16-gust44 was used (mock transfection). Twenty-four hours after transfection, cells were washed with HBSS including 10 mM HEPES and loaded with Fluo-4 in the dark for 1 h. After incubation, cells were washed 2 times with HBSS (including 10 mM HEPES), incubated in the dark for another 30 min, and then washed with assay solution once more before running the assay using a FlexStation III reader. Relative fluorescence units (excitation at 494 nm, emission at 516 nm, and auto cutoff at 515 nm) were read every 2 s for 2 min. Calcium mobilization traces were recorded.
Calcium mobilization traces were raw data obtained from single wells. Changes in fluorescence (ΔF) were calculated as the peak fluorescence minus baseline fluorescence ([Lei et al. 2015]). The calcium mobilization was quantified as the percentage of change (ΔF) relative to baseline (F). […] Calcium mobilization traces and bar graphs along with dose-dependent plots were all generated by GraphPad Prism 7. […]

[2] = molecular target: T1, human TAS2R7 E264^7.32K mutant (Homo sapiens, UniProt Q9NYW3, E264K); test: Calcium mobilization assay, TAS2R7 mutant E264K; format: cell-based; settings: 20 mM metal ions except 0.16 mM Al2(SO4)3; cromolyn 10 mM; Figure 6B
T1 construct: signal peptide: first 45 amino acid residues of rat somatostatin receptor 3 (N); expressed in transfected cells; host or cells: HEK293 PEAKrapid (ATCC CRL-2828), transient, co-transfected with Gα16-gust44
T1 sequence (Q9NYW3 1-318 E264K): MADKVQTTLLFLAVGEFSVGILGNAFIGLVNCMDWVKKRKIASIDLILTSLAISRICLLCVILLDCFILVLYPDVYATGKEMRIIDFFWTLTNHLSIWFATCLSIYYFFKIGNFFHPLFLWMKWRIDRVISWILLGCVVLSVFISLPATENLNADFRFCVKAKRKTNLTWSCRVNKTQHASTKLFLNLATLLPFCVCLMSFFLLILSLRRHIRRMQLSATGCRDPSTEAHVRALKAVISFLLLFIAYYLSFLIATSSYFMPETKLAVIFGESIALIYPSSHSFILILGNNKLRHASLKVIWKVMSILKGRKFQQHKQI
Excerpt: (§2) The coding sequences of human TAS2Rs were amplified from human genomic DNA, then subcloned into pcDNA3.1(+) vector, with the herpes simplex virus glycoprotein D epitope (HSV) at the C-terminal and a signal peptide consisting of the first 45 amino acid residues of the rat somatostatin receptor 3 at the N-terminal, essentially as described previously ([Bufe et al. 2002]). Point mutations in human TAS2R7 (NCBI Reference Sequence: NP_076408.1) were constructed by site-directed mutagenesis. All the constructs were confirmed by Sanger sequencing.
as §1
(§3) Calcium mobilization traces were raw data obtained from single wells. Changes in fluorescence (ΔF) were calculated as the peak fluorescence minus baseline fluorescence ([Lei et al. 2015]). The calcium mobilization was quantified as the percentage of change (ΔF) relative to baseline (F). […] Calcium mobilization traces and bar graphs along with dose-dependent plots were all generated by GraphPad Prism 7. Analysis of variance with Dunnett’s multiple comparisons test was used for statistical analysis. *P < 0.05.
To assess the importance of these residues, we performed site-directed mutagenesis. We mutated the negatively charged residues E16^1.42, E264^7.32, and E271^7.39 to Q (glutamine), K (lysine), or L (leucine). The facing H94^3.37 was mutated to F (phenylalanine). HEK293 cells that expressed mutant receptors along with Gα16-gust44 were examined for their responses to metal ions (20 mM for all except 0.16 mM Al2(SO4)3) and cromolyn (10 mM, as a positive control) to assess receptor’s function. To determine the expression level of each receptor, we stained the wild-type or mutant receptor-transfected cells using an anti-HSV antibody since all the receptors are tagged with HSV at c-terminal. […]

[3] = molecular target: T2, human TAS2R7 E264^7.32L mutant (Homo sapiens, UniProt Q9NYW3, E264L); test: Calcium mobilization assay, TAS2R7 mutant E264L; format: cell-based; settings: 20 mM metal ions except 0.16 mM Al2(SO4)3; cromolyn 10 mM; Figure 6B
T2 construct: signal peptide: first 45 amino acid residues of rat somatostatin receptor 3 (N); expressed in transfected cells; host or cells: HEK293 PEAKrapid (ATCC CRL-2828), transient, co-transfected with Gα16-gust44
T2 sequence (Q9NYW3 1-318 E264L): T1 sequence (Q9NYW3 1-318 E264K) with K264L
Excerpt: as §2, §1
as §3, with “0.05. […]” for “0.05.”

[4] = molecular target: T3, human TAS2R7 E271^7.39 to glutamine mutant (Homo sapiens, UniProt Q9NYW3, E271Q); test: Calcium mobilization assay, TAS2R7 mutant E271Q; format: cell-based; settings: 20 mM metal ions except 0.16 mM Al2(SO4)3; cromolyn 10 mM; Figure 6C
T3 construct: signal peptide: first 45 amino acid residues of rat somatostatin receptor 3 (N); expressed in transfected cells; host or cells: HEK293 PEAKrapid (ATCC CRL-2828), transient, co-transfected with Gα16-gust44
T3 sequence (Q9NYW3 1-318 E271Q): T1 sequence (Q9NYW3 1-318 E264K) with K264E, E271Q
Excerpt: as §2
(§4) Human embryonic kidney 293 (PEAKrapid, ATCC # CRL-2828) cells were cultured in Opti-MEM medium with 4% fetal bovine serum. […] After incubation, cells were washed 2 times with HBSS (including 10 mM HEPES), incubated in the dark for another 30 min, and then washed with assay solution once more before running the assay using a FlexStation III reader. Relative fluorescence units (excitation at 494 nm, emission at 516 nm, and auto cutoff at 515 nm) were read every 2 s for 2 min. Calcium mobilization traces were recorded.
(§5) Calcium mobilization traces were raw data obtained from single wells. Changes in fluorescence (ΔF) were calculated as the peak fluorescence minus baseline fluorescence ([Lei et al. 2015]). The calcium mobilization was quantified as the percentage of change (ΔF) relative to baseline (F). […]

[5] = molecular target: T4, human TAS2R7 E271^7.39 to leucine mutant (Homo sapiens, UniProt Q9NYW3, E271L); test: Calcium mobilization assay, TAS2R7 mutant E271L; format: cell-based; settings: 20 mM metal ions except 0.16 mM Al2(SO4)3; cromolyn 10 mM; Figure 6C
T4 construct: signal peptide: first 45 amino acid residues of rat somatostatin receptor 3 (N); expressed in transfected cells; host or cells: HEK293 PEAKrapid (ATCC CRL-2828), transient, co-transfected with Gα16-gust44
T4 sequence (Q9NYW3 1-318 E271L): T1 sequence (Q9NYW3 1-318 E264K) with K264E, E271L
Excerpt: as §2, §4, §5

Response of E264K mutant receptor [2]: reduced | Response of E264L mutant receptor [3]: reduced | Response of E271 to glutamine mutant receptor [4]: slightly reduced responses | Response of E271 to leucine mutant receptor [5]: slightly reduced responses
Compound: O=C(O)c1cc(=O)c2c(OCC(O)COc3cccc4oc(C(=O)O)cc(=O)c34)cccc2o1 [cromolyn, reference compound]
Response of mock-transfected cells [1]: not
